The values below come from patent publication US20050074765A1, “Methods for identifying and using modulators of estrogen related receptor gamma” (priority 2002, published 2005).

Assay [1] concerns the target T1, ERRγ:RIP140 complex (Homo sapiens, UniProt P62508).
T1 construct: made in house; host or cells: E. coli BL21(DE3), pRSETa vector; RIP140 peptide synthesised by SynPep
T1 sequence (P62508 with tags, fused parts or gaps): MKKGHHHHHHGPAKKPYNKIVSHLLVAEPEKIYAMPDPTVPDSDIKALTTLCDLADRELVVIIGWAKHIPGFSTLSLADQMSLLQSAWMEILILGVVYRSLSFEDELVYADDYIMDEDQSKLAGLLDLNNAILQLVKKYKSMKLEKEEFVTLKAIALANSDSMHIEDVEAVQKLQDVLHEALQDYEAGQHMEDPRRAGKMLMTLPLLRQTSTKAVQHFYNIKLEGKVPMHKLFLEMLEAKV
Put plainly: ERRγ:RIP140 FRET ligand sensing assay (LiSA). Type of assay: biochemical. Conditions: ERRγ LBD and RIP140 peptide, one to one ratio. As to the method: Before using the buffer in the assay, 10 mM DTT was added to the appropriate amount of buffer.

Assay [2] deals with T2, ERRγ (Homo sapiens, UniProt P62508).
T2 construct: made in house; host or cells: E. coli BL21(DE3), pRSETa vector
T2 sequence (P62508 with tags, fused parts or gaps): T1 sequence (P62508 with tags, fused parts or gaps)
Put plainly: ERRγ direct binding assay ([3H]-tamoxifen competition, SPA). Conditions: found using FRET assay and direct binding assay in conjunction with the homology model. From the text: The binding assay was developed with a different set of parameters than that of the LiSA assay. No common set of assay conditions is applicable to all nuclear receptors. Accordingly, parameters to be optimized included pH, detergents, carriers, and bead concentrations. By […] several variables at one time, a large number of conditions can be examined through the statistical capabilities of a program called JMP (SAS Institute, Cary N.C.). Multiple variables including, but not limited to, buffer, detergents, and carrier, were entered simultaneously Lnto the program with the goal being to increase specific counts while lowering non-specific counts.
The same ERRγ protein as set forth in Example 4 was used to develop the binding assay. The buffer for this system was prepared with 50 mM MOPS (pH 7), 50 mM KCl, and 1 mM EDTA, in 1 L of deionized water. This buffer was then filtered with the Corning (431205) filter system with a 0.22 μm cellulose Acetate filter. After filtering, 0.01% Tween20 was added. Before using the buffer in the assay, 10 mM DTT was added to the appropriate amount of buffer. Approximately 0.125 mg/ml SA-SPA beads (Wallac) were coated with 20 nM biotinylated ERRγ. […] These plates were then read on the Wallac Trilux scintillation counter.

Take 4-hydroxytamoxifen: in assay [1], the “dissociation of the receptor:cofactor interaction” value is “caused this dissociation”. For the same compound, the “ligand for ERRγ” value in assay [2] is reported as “ligands for ERPγ”.
Consider `CC/C(=C(/c1ccc(OCCN(C)C)cc1)c1cccc(O)c1)c1ccccc1` [3-hydroxytamoxifen], for which the “ligand for ERRγ” value in assay [2] is given as “ligands for ERPγ”.
